Here are results for eleven compounds from ChEMBL document CHEMBL2396582, “Large conductance Ca(2+)-activated K(+) channel (BKCa) activating properties of a series of novel N-arylbenzamides: Channel subunit dependent effects” (Bioorg Med Chem, 2013).

Type in all cases: cell-based
The target in experiment [1] is T1, Calcium-activated potassium channel alpha/beta 1 (Homo sapiens) (UniProt Q12791+Q16558). The experiment is described as follows: Activation of human BKCA alpha/beta1 channel expressed in HEK293 cells assessed as increase of rubidium efflux after 10 mins in presence paxilline.
The target of experiment [2] is Calcium-activated potassium channel subunit alpha-1 (Homo sapiens) (UniProt Q12791). The experiment is described as follows: Activation of human BKCA alpha channel expressed in HEK293 cells assessed as increase of rubidium efflux after 10 mins relative to control.
Experiment [3] concerns the target T1, Calcium-activated potassium channel alpha/beta 1 (Homo sapiens). The experiment is described as follows: Activation of human BKCA alpha/beta1 channel expressed in HEK293 cells assessed as increase of rubidium efflux after 10 mins in presence iberiotoxin.
Experiment [4] has as its target Calcium-activated potassium channel subunit alpha-1 (Homo sapiens) (UniProt Q12791). The experiment is described as follows: Activation of human BKCA alpha channel expressed in HEK293 cells assessed as increase of rubidium efflux after 10 mins.
Experiment [5] shares this target. Briefly: Activation of human BKCA alpha channel expressed in HEK293 cells assessed as increase of rubidium efflux at 100 uM after 10 mins in presence of paxilline.
Experiment [6] concerns the target T1, Calcium-activated potassium channel alpha/beta 1 (Homo sapiens). The experiment is described as follows: Activation of human BKCA alpha/beta1 channel expressed in HEK293 cells assessed as increase of rubidium efflux after 10 mins relative to control.
Experiment [7] addresses Calcium-activated potassium channel subunit alpha-1 (Homo sapiens) (UniProt Q12791). The experiment is described as follows: Activation of human BKCA alpha channel expressed in HEK293 cells assessed as increase of rubidium efflux at 100 uM after 10 mins in presence of iberiotoxin.
Experiment [8] deals with T1, Calcium-activated potassium channel alpha/beta 1 (Homo sapiens). The experiment is described as follows: Activation of human BKCA alpha/beta1 channel expressed in HEK293 cells assessed as increase of rubidium efflux after 10 mins.
The target of experiment [9] is Calcium-activated potassium channel subunit alpha-1 (Homo sapiens) (UniProt Q12791). The experiment is described as follows: Activation of human BKCA alpha channel expressed in HEK293 cells assessed as increase in intracellular calcium level at 100 uM after 30 mins.
The target is the same in experiment [10]. Briefly: Activation of human BKCA alpha channel expressed in HEK293 cells assessed as increase in intracellular calcium level at 50 uM after 30 mins. A general note: A change in cytosolic calcium serves as a functional read-out for many receptors and channels.
The target is the same in experiment [11]. Briefly: Activation of human BKCA alpha channel expressed in HEK293 cells assessed as increase in intracellular calcium level at 0.1 uM after 30 mins.
Experiment [12] has the same target. Briefly: Activation of human BKCA alpha channel expressed in HEK293 cells assessed as increase in intracellular calcium level at 10 uM after 30 mins.

The structures appear in SMILES notation. Active and inactive are the calls of the source. No cut-off for these calls is given here.

Chain of Calcium-activated potassium channel subunit alpha-1 (Homo sapiens) (Q12791 whole entry): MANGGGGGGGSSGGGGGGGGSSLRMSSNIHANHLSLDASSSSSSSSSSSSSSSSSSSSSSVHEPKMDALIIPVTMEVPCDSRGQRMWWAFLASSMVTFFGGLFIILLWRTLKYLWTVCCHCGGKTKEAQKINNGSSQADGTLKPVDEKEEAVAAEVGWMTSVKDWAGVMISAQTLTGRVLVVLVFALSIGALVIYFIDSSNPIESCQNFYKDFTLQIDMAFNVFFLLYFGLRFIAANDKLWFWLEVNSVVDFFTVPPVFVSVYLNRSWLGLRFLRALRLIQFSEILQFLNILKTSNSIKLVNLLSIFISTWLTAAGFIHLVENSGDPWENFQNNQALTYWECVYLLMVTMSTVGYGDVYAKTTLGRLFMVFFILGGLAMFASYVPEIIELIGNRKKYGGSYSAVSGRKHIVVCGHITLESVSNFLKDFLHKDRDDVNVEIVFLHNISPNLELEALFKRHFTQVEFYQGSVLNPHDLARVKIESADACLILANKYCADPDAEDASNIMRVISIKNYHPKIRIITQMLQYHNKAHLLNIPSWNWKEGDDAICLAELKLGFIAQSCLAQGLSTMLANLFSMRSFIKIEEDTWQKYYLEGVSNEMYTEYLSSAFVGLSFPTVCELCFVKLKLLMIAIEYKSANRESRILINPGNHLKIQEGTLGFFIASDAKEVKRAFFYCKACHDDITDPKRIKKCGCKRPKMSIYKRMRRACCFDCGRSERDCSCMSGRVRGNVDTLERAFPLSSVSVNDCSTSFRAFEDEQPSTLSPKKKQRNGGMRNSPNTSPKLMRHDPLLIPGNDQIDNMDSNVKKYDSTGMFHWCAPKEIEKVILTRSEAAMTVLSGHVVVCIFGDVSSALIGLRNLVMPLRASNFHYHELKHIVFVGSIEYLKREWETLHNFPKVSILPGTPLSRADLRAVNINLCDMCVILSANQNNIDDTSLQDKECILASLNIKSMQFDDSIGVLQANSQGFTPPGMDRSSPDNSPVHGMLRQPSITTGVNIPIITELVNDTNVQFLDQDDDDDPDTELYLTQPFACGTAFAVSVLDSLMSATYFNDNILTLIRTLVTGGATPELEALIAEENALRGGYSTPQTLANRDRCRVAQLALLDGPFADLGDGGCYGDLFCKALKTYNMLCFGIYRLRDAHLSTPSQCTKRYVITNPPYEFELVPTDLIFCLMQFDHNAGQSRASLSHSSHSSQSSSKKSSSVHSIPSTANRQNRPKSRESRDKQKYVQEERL

What is called Emax is the size of the effect at its maximum, as opposed to the concentration needed. As to `Cc1ccccc1C(=O)Nc1cc(Cl)ccc1O`, the result in experiment [1], in experiment [3], in experiment [5] and in experiment [7] was inactive. The Emax in experiment [2] amounted to 59.7%; in [6] it was 56.8%. For the same compound, the EC40 is 2.95 µM in experiment [4] and 3.63 µM in experiment [8].
Regarding `COc1ccc(Cl)cc1C(=O)Nc1ccccn1`, the result in experiment [1], in experiment [3], in [5] and in experiment [7] was inactive. Further, the figures for the Emax in experiment [2] and in experiment [6] were 49.1% and 42%, respectively. Also, the figures for the EC40 in [4] and in experiment [8] were 4.47 µM and 46.8 µM, respectively.
For `O=C(Nc1cc(Cl)ccc1O)c1ccccc1`, the result in experiment [1], in [3], in experiment [5] and in experiment [7] was inactive. Moreover, the Emax in [2] worked out at 62.5%; in experiment [6], 32.9%. Besides, the EC40 in experiment [4] came out at 1.41 µM.
Turning to `CCOc1ccccc1C(=O)Nc1cc(Cl)ccc1O`, the outcome in experiment [1], in [3], in experiment [5] and in [7] was inactive. In addition, the maximal effect (Emax) in experiment [2] is 69.9%; in experiment [6] it was 99.5%. Further, the Activity in experiment [9] turned out to be 6.2%. Further, the EC40 in [4] came out at 0.21 µM; in [8], 0.12 µM.
Regarding `Cc1ccc(NC(=O)c2ccccc2O)c([N+](=O)[O-])c1`, the outcome in experiment [1], in experiment [3], in [5] and in experiment [7] was inactive. Further, the Emax was 86.4% in experiment [2] and 54.4% in experiment [6]. Also, the EC40 was found to be 0.56 µM in [4] and 1.41 µM in experiment [8].
`COc1ccc(Cl)cc1C(=O)Nc1ccncc1`: the outcome in experiment [1], in [3], in experiment [5] and in [7] was inactive. Further, the figures for the Emax in experiment [2] and in [6] were 99.2% and 65.1%, respectively. The EC40 in experiment [4] was determined as 1.12 µM; in [8], 4.16 µM.
For the compound `O=c1[nH]c2cc(C(F)(F)F)ccc2n1-c1cc(C(F)(F)F)ccc1O`, the outcome in [1], in experiment [3], in experiment [5] and in experiment [7] was inactive. The maximal effect (Emax) came to 61.7% in [2] and 76.6% in experiment [6]. In addition, the Activity in experiment [9] came out at 5.3%. In addition, the results for the EC40 in experiment [4] and in experiment [8] were 0.35 µM and 0.79 µM, respectively.
For the compound `C=C[C@@]1(C)CC(=O)[C@]2(O)[C@@]3(C)[C@@H](O)CCC(C)(C)[C@@H]3[C@H](O)[C@H](OC(C)=O)[C@@]2(C)O1`, in [10], the Activity worked out at 22.3%.
For `CC(C)[C@@]1(O)[C@@H](OC(=O)c2cc[nH]c2)[C@@]2(O)[C@]3(C)C[C@@]4(O)O[C@@]5([C@H](O)[C@@H](C)CC[C@]35O)[C@@]2(O)[C@@]41C`, in experiment [11], the Activity came to 38.1%.
Turning to `COc1ccc(Cl)cc1C(=O)Nc1cccnc1`, the result in experiment [1], in experiment [3], in experiment [5] and in experiment [7] was inactive. Besides, the Emax in experiment [2] was found to be 72.5%; in experiment [6] it was 68.8%. In addition, the EC40 came out at 0.31 µM in experiment [4] and 3.47 µM in experiment [8].
For `CNc1ccc2oc(C[C@H]3O[C@@]4(CC[C@H]3C)O[C@H]([C@H](C)C(=O)c3ccc[nH]3)[C@H](C)C[C@H]4C)nc2c1C(=O)O`, in experiment [12], the Activity was 416%.
